ChEMBL document CHEMBL1201862, “PubChem BioAssay data set” (2004)
Where “and” joins values, the source holds several entries; their conditions need not be identical. Identical values can stand only once.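 96-well plates; 48 h exposure; 5 concentrations. Endpoints by linear interpolation between flanking doses. Not reached: highest tested concentration assigned. The concentration for 50% growth inhibition is given as GI50.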 Calls of active or inactive are those of the source. Rule as the data show it: active = GI50 up to about 1.1 µM and inactive = higher.

Legend:
Assay in all cases: inhibition of tumour cell growth, NCI panel, 48 h
[1] = tested on: MDA-N
[2] = tested on: K562
[3] = tested on: UACC-257
[4] = tested on: MOLT-4
[5] = tested on: NCI/ADR-RES
[6] = tested on: ACHN
[7] = tested on: CAKI-1
[8] = tested on: A549
[9] = tested on: KM12
[10] = tested on: SK-MEL-2
[11] = tested on: OVCAR-3
[12] = tested on: NCI-H226
[13] = tested on: SW-620
[14] = tested on: SNB-19
[15] = tested on: CCRF-CEM
[16] = tested on: MDA-MB-231
[17] = tested on: HOP-62
[18] = tested on: NCI-H23
[19] = tested on: SF-295

| SMILES | GI50 [1] | GI50 [2] | GI50 [3] | GI50 [4] | GI50 [5] | GI50 [6] | GI50 [7] | GI50 [8] | GI50 [9] | GI50 [10] | GI50 [11] | GI50 [12] | GI50 [13] | GI50 [14] | GI50 [15] | GI50 [16] | GI50 [17] | GI50 [18] | GI50 [19] |
| --- | --- | --- | --- | --- | --- | --- | --- | --- | --- | --- | --- | --- | --- | --- | --- | --- | --- | --- | --- |
| Cc1cc(S(=O)(=O)/N=C(\NN)Nc2ccc(Cl)cc2)c(S)cc1Cl | 8.87 µM (inactive) | 2.13 µM (inactive) | 19.3 µM (inactive) | 2.75 µM (inactive) | 2.71 µM (inactive) | 3.06 µM (inactive) | 19.9 µM (inactive) | 11 µM (inactive) | 2.85 µM (inactive) | 19.2 µM (inactive) | 12.4 µM (inactive) | 16 µM (inactive) | 11.1 µM (inactive) | 11.5 µM (inactive) | 3.28 µM (inactive) | 20.4 µM (inactive) | 10.8 µM (inactive) |  |  |
| O=c1c(-c2ccc(O)cc2)coc2cc(OC3OC(CO)C(O)C(O)C3O)cc(O)c12 (stereo unspecified) | > 100 µM (inactive) | > 10 µM (inactive) | > 100 µM (inactive) | 43.1 µM (inactive) | > 10 µM (inactive) | 54.5 µM (inactive) | 60.4 µM (inactive) | 60.3 µM (inactive) | > 100 µM (inactive) | > 10 µM (inactive) | > 100 µM (inactive) | > 100 µM (inactive) | > 10 µM (inactive) | > 100 µM (inactive) | 38.8 µM (inactive) | > 100 µM (inactive) | > 10 µM (inactive) | > 10 µM (inactive) | 92.7 µM (inactive) |
| CC(=O)OCC1OC(NC(=S)Nn2c(=O)[nH]c3ccccc3c2=O)C(OC(C)=O)C(OC(C)=O)C1OC(C)=O (stereo unspecified) | > 100 µM (inactive) |  | > 100 µM (inactive) | > 100 µM (inactive) | > 100 µM (inactive) | > 100 µM (inactive) | > 100 µM (inactive) | > 100 µM (inactive) | > 100 µM (inactive) | > 100 µM (inactive) | > 100 µM (inactive) | > 100 µM (inactive) | > 100 µM (inactive) | > 100 µM (inactive) | 49.5 µM (inactive) | > 100 µM (inactive) | > 100 µM (inactive) | > 100 µM (inactive) | > 100 µM (inactive) |
| O=C1Oc2ccccc2C1C/C(=N\Nc1ccccc1)c1ccccc1O (stereo unspecified) | 44.5 µM (inactive) |  | 28.8 µM (inactive) | 29.9 µM (inactive) | 20.8 µM (inactive) | 16.6 µM (inactive) | 25.6 µM (inactive) | 50 µM (inactive) | 7.46 µM (inactive) | 35.5 µM (inactive) | 32.8 µM (inactive) | 28.8 µM (inactive) | 29.9 µM (inactive) | > 100 µM (inactive) | 62.1 µM (inactive) | 28.9 µM (inactive) | 53.3 µM (inactive) | 22.2 µM (inactive) | 33.7 µM (inactive) |
| C/C(=N/NC(=S)Nc1ccccc1Cl)c1ccccn1 | 0.452 µM (active) | < 0.01 µM (active) | < 0.0151 µM (active) | < 0.0109 µM (active) | 0.0914 µM (active) | 0.0402 µM (active) | 0.0675 µM (active) | 0.0582 µM (active) | 0.0705 µM (active) | 1.98 µM (inactive) | 0.0136 µM (active) | < 0.0401 µM (active) | < 0.0168 µM (active) | 1.79 µM (inactive) | < 0.01 µM (active) | < 0.0164 µM (active) | < 0.0415 µM (active) | < 0.0161 µM (active) | 0.0986 µM (active) |
| Cc1nc2ccccc2c(=O)n1NC(=S)Nc1ccc(Cl)cc1[N+](=O)[O-] | > 100 µM (inactive) | > 100 µM (inactive) | > 100 µM (inactive) | > 100 µM (inactive) | > 100 µM (inactive) | > 100 µM (inactive) | > 100 µM (inactive) | > 100 µM (inactive) | > 100 µM (inactive) | > 100 µM (inactive) | > 100 µM (inactive) | > 10 µM (inactive) | > 100 µM (inactive) | > 72.8 µM (inactive) | > 100 µM (inactive) | > 100 µM (inactive) | > 100 µM (inactive) | > 100 µM (inactive) | > 100 µM (inactive) |
| CC(=O)OCC(OC(C)=O)C(OC(C)=O)C(/C=N\Nc1nc2ccccc2c(=O)[nH]1)OC(C)=O (stereo unspecified) | > 100 µM (inactive) | > 100 µM (inactive) | > 100 µM (inactive) | 86.9 µM (inactive) | 24.9 µM (inactive) and 34.5 µM (inactive) | > 100 µM (inactive) | > 100 µM (inactive) | > 100 µM (inactive) | > 100 µM (inactive) | > 100 µM (inactive) | > 100 µM (inactive) | > 100 µM (inactive) and 89.9 µM (inactive) | > 100 µM (inactive) | > 100 µM (inactive) | > 100 µM (inactive) | > 100 µM (inactive) | > 100 µM (inactive) | > 100 µM (inactive) | > 100 µM (inactive) |
| N#Cc1nc(C#N)n(C(=O)c2ccccc2)c1NC(=O)c1ccccc1 | > 100 µM (inactive) | > 100 µM (inactive) | > 100 µM (inactive) | > 100 µM (inactive) | > 100 µM (inactive) | > 100 µM (inactive) | > 100 µM (inactive) | > 100 µM (inactive) | > 100 µM (inactive) | > 100 µM (inactive) | > 100 µM (inactive) | > 100 µM (inactive) | > 100 µM (inactive) | > 100 µM (inactive) | > 100 µM (inactive) | > 100 µM (inactive) | > 100 µM (inactive) | > 100 µM (inactive) | > 100 µM (inactive) |
| N#CC1=C(N)OC2=C(CCCc3ccc([N+](=O)[O-])cc32)C1c1ccc(Cl)cc1 (stereo unspecified) | 6.7 µM (inactive) | 3.88 µM (inactive) | 6.08 µM (inactive) | 3.21 µM (inactive) | 6.28 µM (inactive) | 4.59 µM (inactive) | 4.11 µM (inactive) | 6.7 µM (inactive) | 5.58 µM (inactive) | 13.4 µM (inactive) | 6.34 µM (inactive) | 17 µM (inactive) | 9.35 µM (inactive) | 32.9 µM (inactive) | 4.39 µM (inactive) | 7.91 µM (inactive) | 19.7 µM (inactive) | 5.11 µM (inactive) | 11 µM (inactive) |
| C#CCOC(=O)C(N)CCCNC(=N)N (stereo unspecified) | > 100 µM (inactive) |  | > 100 µM (inactive) | > 100 µM (inactive) | > 100 µM (inactive) | > 100 µM (inactive) | > 100 µM (inactive) | > 100 µM (inactive) | > 100 µM (inactive) | > 100 µM (inactive) |  | > 100 µM (inactive) | > 100 µM (inactive) | > 100 µM (inactive) | > 100 µM (inactive) | > 100 µM (inactive) | > 100 µM (inactive) | > 100 µM (inactive) |  |
| CCN1c2nc3ccccc3nc2N(CC)c2nc3ccccc3nc21 | 57.8 µM (inactive) | 34 µM (inactive) | > 10 µM (inactive) | 41.8 µM (inactive) | 63.8 µM (inactive) | 39.1 µM (inactive) | 55.8 µM (inactive) | 88.7 µM (inactive) | 39.5 µM (inactive) | > 100 µM (inactive) | 41.2 µM (inactive) | 51.8 µM (inactive) | 30.7 µM (inactive) | > 100 µM (inactive) | 48.3 µM (inactive) | 70.8 µM (inactive) |  | 49.1 µM (inactive) | 39.7 µM (inactive) |
| COc1cccc(-c2ccc3c4c2O[C@H]2C(=O)CC[C@@]5(O)[C@@H](C3)N(CC3CC3)CC[C@]425)c1 | 18.9 µM (inactive) | 13.5 µM (inactive) | 25.9 µM (inactive) | 10.2 µM (inactive) | 19.4 µM (inactive) | 18.1 µM (inactive) | 16.6 µM (inactive) | 18.2 µM (inactive) | 17.7 µM (inactive) | 19 µM (inactive) | 14.4 µM (inactive) | 11.6 µM (inactive) | 12.2 µM (inactive) | 20.7 µM (inactive) | 7.29 µM (inactive) | 15.8 µM (inactive) | 19.5 µM (inactive) | 24.9 µM (inactive) | 18.4 µM (inactive) |
| COc1cc(OC2OC(CO)C(O)C(O)C2O)c2c(c1)O[C@@H]1[C@H](O)Oc3cc(OC)c(OC)cc3[C@]1(O)C2=O (stereo partly specified) | > 25 µM (inactive) | > 25 µM (inactive) | > 25 µM (inactive) | > 25 µM (inactive) | > 25 µM (inactive) | > 25 µM (inactive) | > 25 µM (inactive) | > 25 µM (inactive) | > 25 µM (inactive) | > 25 µM (inactive) | > 25 µM (inactive) | > 25 µM (inactive) | > 25 µM (inactive) | > 25 µM (inactive) | > 25 µM (inactive) | > 25 µM (inactive) | > 25 µM (inactive) | > 25 µM (inactive) | > 25 µM (inactive) |
| O=S(=O)(/N=c1\[nH]c(-c2cc(O)c(O)c(O)c2)cs1)c1ccc(Cl)cc1Cl | 25.1 µM (inactive) | 18.6 µM (inactive) | 16 µM (inactive) | 20.7 µM (inactive) | 26.4 µM (inactive) | 14.6 µM (inactive) | 17.3 µM (inactive) | 31.9 µM (inactive) | 15.2 µM (inactive) | 43.8 µM (inactive) | 17.4 µM (inactive) | 50.4 µM (inactive) | 18.5 µM (inactive) | 31 µM (inactive) | 19.9 µM (inactive) | 21.3 µM (inactive) | 17.9 µM (inactive) | 26.5 µM (inactive) | 17.2 µM (inactive) |
| CCCCCCCCCCCCC(O)[C@H]1CC[C@H](C(O)CCCCCC(=O)CCCCC2CC(C(C)=O)C(=O)O2)O1 (stereo partly specified) | 3.68 µM (inactive) | 1.33 µM (inactive) | 1.16 µM (inactive) |  | 3.44 µM (inactive) | 7.29 µM (inactive) | 17.1 µM (inactive) | 3.7 µM (inactive) | 8.77 µM (inactive) | 13.6 µM (inactive) | 4.25 µM (inactive) | 17.6 µM (inactive) | 11.4 µM (inactive) | 9.4 µM (inactive) | 3.17 µM (inactive) | 11 µM (inactive) | 4.98 µM (inactive) | 2.22 µM (inactive) | 4.95 µM (inactive) |
